Measured values as given in ChEMBL document CHEMBL4819087, “Identification and optimization of 3-bromo-N'-(4-hydroxybenzylidene)-4-methylbenzohydrazide derivatives as mTOR inhibitors that induce autophagic cell death and apoptosis in triple-negative breast cancer” (Eur J Med Chem, 2021).
Active and inactive are the calls of the source. The rule behind the calls is not given here.

Tests used:
[1] = biological target: T1, Serine/threonine-protein kinase mTOR (Homo sapiens, UniProt P42345); assay: Inhibition of mTOR (unknown origin)
[2] = tested on: MDA-MB-231; assay: Induction of autophagy in human MDA-MB-231 cells assessed as MDC positive ratio at 1 uM incubated for 6 hrs by MDC staining based flow cytometry analysis; assay type: functional
[3] = biological target: T1, Serine/threonine-protein kinase mTOR; assay: Inhibition of mTOR in human MDA-MB-231 cells assessed as reduction in total 4EBP1 protein level at 0.5 to 2 uM after 24 hrs by Western blot analysis; assay type: cell-based; conditions: dose 0.5-2 µM
[4] = biological target: T1, Serine/threonine-protein kinase mTOR; assay: Inhibition of mTOR in human MDA-MB-468 cells assessed as reduction in total 4EBP1 protein level at 0.5 to 2 uM after 24 hrs by Western blot analysis; assay type: cell-based; conditions: dose 0.5-2 µM
[5] = biological target: T1, Serine/threonine-protein kinase mTOR; assay: Inhibition of mTOR in human MDA-MB-468 cells assessed as reduction in AKT protein level at 0.5 to 2 uM after 24 hrs by Western blot analysis; assay type: cell-based; conditions: dose 0.5-2 µM
[6] = biological target: T1, Serine/threonine-protein kinase mTOR; assay: Inhibition of mTOR in human MDA-MB-468 cells assessed as reduction in p-4EBP1(Thr37/46) protein level at 0.5 to 2 uM after 24 hrs by Western blot analysis; assay type: cell-based; conditions: dose 0.5-2 µM
[7] = biological target: T1, Serine/threonine-protein kinase mTOR; assay: Inhibition of mTOR in human MDA-MB-468 cells assessed as reduction in p-AKT(Ser473) protein level at 0.5 to 2 uM after 24 hrs by Western blot analysis; assay type: cell-based; conditions: dose 0.5-2 µM
[8] = tested on: MDA-MB-468; assay: Antiproliferative activity against human MDA-MB-468 cells measured after 24 hrs by Hoechst 33258 dye based fluorescence microscopic analysis; assay type: functional, cell-based; conditions: dose 2.5-10 µM
[9] = tested on: MDA-MB-231; assay: Inhibition of colony formation in human MDA-MB-231 cells measured after 14 days by crystal violet staining based assay; assay type: functional, cell-based; conditions: dose 5-10 µM, time 14.0 day
[10] = tested on: MDA-MB-231; assay: Induction of apoptosis in human MDA-MB-231 cells assessed as viable cells at 2.5 uM after 24 hrs by AnnexinV-FITC/PI staining based flow cytometry analysis (reference value: 96.45%); assay type: functional; conditions: read-out: Activity
[11] = tested on: MDA-MB-231; assay: Induction of apoptosis in human MDA-MB-231 cells assessed as necrotic cells at 2.5 uM after 24 hrs by AnnexinV-FITC/PI staining based flow cytometry analysis (reference value: 0.083%); assay type: functional
[12] = tested on: MDA-MB-231; assay: Induction of apoptosis in human MDA-MB-231 cells assessed as viable cells at 5 uM after 24 hrs by AnnexinV-FITC/PI staining based flow cytometry analysis (reference value: 96.45%); assay type: functional; conditions: read-out: Activity
[13] = tested on: MDA-MB-231; assay: Induction of apoptosis in human MDA-MB-231 cells assessed as early apoptotic cells at 10 uM after 24 hrs by AnnexinV-FITC/PI staining based flow cytometry analysis (reference value: 2.43 to 2.63%); assay type: functional
[14] = tested on: MDA-MB-231; assay: Induction of apoptosis in human MDA-MB-231 cells assessed as necrotic cells at 10 uM after 24 hrs by AnnexinV-FITC/PI staining based flow cytometry analysis (reference value: 0.083%); assay type: functional
[15] = tested on: MDA-MB-468; assay: Induction of apoptosis in human MDA-MB-468 cells assessed as viable cells at 2.5 uM after 24 hrs by AnnexinV-FITC/PI staining based flow cytometry analysis (reference value: 95.1%); assay type: functional; conditions: read-out: Activity
[16] = tested on: MDA-MB-468; assay: Induction of apoptosis in human MDA-MB-468 cells assessed as early apoptic cells at 2.5 uM after 24 hrs by AnnexinV-FITC/PI staining based flow cytometry analysis (reference value: 0.51%); assay type: functional
[17] = tested on: MDA-MB-468; assay: Induction of apoptosis in human MDA-MB-468 cells assessed as late apoptic cells at 2.5 uM after 24 hrs by AnnexinV-FITC/PI staining based flow cytometry analysis (reference value: 2.84%); assay type: functional
[18] = tested on: MDA-MB-468; assay: Induction of apoptosis in human MDA-MB-468 cells assessed as viable cells at 5 uM after 24 hrs by AnnexinV-FITC/PI staining based flow cytometry analysis (reference value: 95.1%); assay type: functional; conditions: read-out: Activity
[19] = tested on: MDA-MB-468; assay: Induction of apoptosis in human MDA-MB-468 cells assessed as late apoptic cells at 5 uM after 24 hrs by AnnexinV-FITC/PI staining based flow cytometry analysis (reference value: 2.84%); assay type: functional
[20] = tested on: MDA-MB-468; assay: Induction of apoptosis in human MDA-MB-468 cells assessed as necrotic cells at 5 uM after 24 hrs by AnnexinV-FITC/PI staining based flow cytometry analysis (reference value: 1.56%); assay type: functional
[21] = tested on: MDA-MB-231; assay: Induction of apoptosis in human MDA-MB-231 cells assessed as increase in cleaved caspase 3 level at 2.5 to 10 uM incubated for 24 hrs by western blot analysis; assay type: functional, cell-based; conditions: dose 2.5-10 µM
[22] = tested on: MDA-MB-231; assay: Induction of apoptosis in human MDA-MB-231 cells assessed as increase in Bax level at 2.5 to 10 uM incubated for 24 hrs by western blot analysis; assay type: functional, cell-based; conditions: dose 2.5-10 µM
[23] = tested on: MDA-MB-231; assay: Induction of autophagy in human MDA-MB-231 cells assessed as reduction in p62 protein level at 2.5 to 10 uM incubated for 24 hrs by Western blot analysis; assay type: functional, cell-based; conditions: dose 2.5-10 µM
[24] = tested on: MDA-MB-231; assay: Induction of autophagy in human MDA-MB-231 cells assessed as increase in LC3-II protein level at 2.5 to 10 uM incubated for 24 hrs by Western blot analysis; assay type: functional, cell-based; conditions: dose 2.5-10 µM
[25] = tested on: MDA-MB-231; assay: Induction of autophagy in human MDA-MB-231 cells assessed as increase in Beclin-1 protein level at 2.5 to 10 uM incubated for 24 hrs by Western blot analysis; assay type: functional, cell-based; conditions: dose 2.5-10 µM
[26] = tested on: MDA-MB-468; assay: Induction of autophagy in human MDA-MB-468 cells assessed as increase in LC3-II protein level at 2.5 to 10 uM incubated for 24 hrs by Western blot analysis; assay type: functional, cell-based; conditions: dose 2.5-10 µM
[27] = tested on: MDA-MB-231; assay: Antiproliferative activity against human MDA-MB-231 cells assessed as inhibition of cell viability at 5 uM preincubated with autophagy inhibitor, 3-methyladenine for 1 hr followed by compound addition and measured after 24 hrs by MTT assay; assay type: functional, cell-based
[28] = tested on: MDA-MB-231; assay: Inhibition of colony formation in human MDA-MB-231 cells at 10 uM incubated for 14 days in presence of autophagy inhibitor, 3-methyladenine by crystal violet staining based analysis; assay type: functional, cell-based; conditions: time 14.0 day
[29] = tested on: MDA-MB-468; assay: Inhibition of colony formation in human MDA-MB-468 cells at 10 uM incubated for 14 days in presence of autophagy inhibitor, 3-methyladenine by crystal violet staining based analysis; assay type: functional, cell-based; conditions: time 14.0 day
[30] = tested on: MDA-MB-231; assay: (§1) Induction of apoptosis in human MDA-MB-231 cells assessed as late apoptotic cells at 10 uM pretreated with autophagy inhibitor, 3-methyladenine for 1 hr followed by incubation with compound and measured after 24 hrs by Annexin V-FITC/propidium iodide staining based flow cytometry (reference value: 3.11%); assay type: functional; parameters: scale not given: the % may be the effect or the level left
[31] = tested on: MDA-MB-468; assay: as §1, with “MDA-MB-468” for “MDA-MB-231”, “pretreated for 1 hr” for “pretreated”, “3-methyladenine” for “3-methyladenine for 1 hr”, “1.94%)” for “3.11%)”; assay type: functional; parameters: scale not given: the % may be the effect or the level left
[32] = tested on: MDA-MB-231; assay: Induction of apoptosis in human MDA-MB-231 cells assessed as viable cells at 10 uM pretreated with autophagy inhibitor, 3-methyladenine for 1 hr followed by incubation with compound and measured after 24 hrs by Annexin V-FITC/propidium iodide staining based flow cytometry (reference value: 92.7%); assay type: functional; conditions: read-out: Activity
[33] = tested on: MDA-MB-231; assay: cells; conditions: Homo sapiens, MDA-MB-231, 24 h
Description: Antiproliferative activity against human MDA-MB-231 cells assessed as reduction in cell viability incubated for 24 hrs by MTT assay

[34] = tested on: MDA-MB-468; assay: cells; conditions: Homo sapiens, MDA-MB-468, 24 h
Description: Antiproliferative activity against human MDA-MB-468 cells assessed as reduction in cell viability incubated for 24 hrs by MTT assay

In the case of `C/C(=N\NC(=O)c1cccc(Br)c1)c1ccc(C(=O)Nc2nc3ccccc3[nH]2)cc1`, the IC50 [1] is reported as 0.304 µM, the Activity [2] is reported as 25.67% and the inhibition [3] is reported as “Active”. The inhibition [4] was “Active”, the inhibition [5] was “Active” and the inhibition [6] was “Active”. The inhibition [7] was “Active”, the Activity [8] was “Dose-Dependent Effect” and the inhibition [9] was “Dose-Dependent Effect”. For the same compound, the viability at 2.5 µM [10] was 90.1%, the Activity [11] was 0.076% and the viability at 5 µM [12] was 87.1%. It also gave an Activity [13] of 12.9%, an Activity [14] of 0.15% and a viability at 2.5 µM [15] of 89.8%. The Activity [16] was 3.35%, the Activity [17] was 4.96% and the viability at 5 µM [18] was 86.2%. For the same compound, the Activity [19] was 5.16%, the Activity [20] was 0.87% and the Activity [21] was “Active”. The Activity [22] was “Active”, the Activity [23] was “Active” and the Activity [24] was “Active”. The Activity [25] was “Active”, the Activity [26] was “Active” and the Activity [27] was “Active”. For the same compound, the inhibition [28] was “Active”, the inhibition [29] was “Active” and the Activity [30] was 6.8%. For the same compound, the Activity [31] was 8.98%, the viability at 10 µM [32] was 86.3% and the IC50 [33] was 3.38 µM. It also gave an IC50 [34] of 4.3 µM.
